Test results reported in paper PMC8597734 (Antimicrobial Agents and Chemotherapy, 2021).
In brackets after ≈: the same amount, converted by molar mass. Where two headings read alike, the source gives them in different places.

Key:
M. avium 11 = test: microbe, parasite or virus in culture; format: cell-based; conditions: Mycobacterium avium, 11, 96 h
M. abscessus Bamboo [1] = test: microbe, parasite or virus in culture; format: cell-based, Mycobacterium abscessus; conditions: Mycobacteroides abscessus, 72 h
[2] = system: M. abscessus subsp. abscessus ATCC 19977; test: microbe, parasite or virus in culture; format: cell-based, Mycobacterium abscessus; conditions: Mycobacteroides abscessus
[3] = system: M. abscessus subsp. massiliense CCUG 48898T; test: microbe, parasite or virus in culture; format: cell-based, Mycobacterium abscessus; conditions: Mycobacteroides abscessus, 72 h
[4] = system: M. abscessus subsp. abscessus M9; test: microbe, parasite or virus in culture; format: cell-based, Mycobacterium abscessus; conditions: Mycobacteroides abscessus, 72 h
[5] = system: M. abscessus subsp. abscessus M199; test: microbe, parasite or virus in culture; format: cell-based, Mycobacterium abscessus; conditions: Mycobacteroides abscessus, 72 h
[6] = system: M. abscessus subsp. abscessus M337; test: microbe, parasite or virus in culture; format: cell-based, Mycobacterium abscessus; conditions: Mycobacteroides abscessus, 72 h
M. abscessus Bamboo [7] = test: MIC and MBC determination in culture tubes (planktonic); format: cell-based, Mycobacterium abscessus; conditions: Mycobacteroides abscessus
[8] = system: M. abscessus Bamboo biofilms; test: Biofilm growth inhibition assay (biofilm MIC and MBC); format: cell-based, Mycobacterium abscessus
Description: The biofilm growth inhibition assay was performed as previously described ([52]). Innovotech MBEC 96-well Biofilm Assay Plates (Innovotech 19111, Edmonton, AB, Alberta, Canada) were used, and the supplier’s manual was followed with minor modifications. Midlog phase M. abscessus Bamboo precultures (OD600 = 0.4–0.6) were spun down at 3,200 × g for 10 min at 25°C and washed with 7H9 medium without Tween 80 (7H9nt). Bacteria were resuspended into 25 ml 7H9nt to an OD600 = 0.0125 (1.0 × 10^6 CFU/ml). 150 μl of bacteria suspension was dispensed into each well of MBEC multititer plates and the polystyrene protrusions (pegs) of the MBEC lid were inserted into the culture-containing wells for 24 h at 37°C on an orbital shaker at 110 rpm to allow attachment of the bacteria to the pegs and initiation of biofilm growth. The lids with the pegs (now with 1-day-old biofilms) were transferred to new MBEC multititer plates containing 150 μl of fresh 7H9nt medium per well without bacteria (0 h time point). After that, the lids with biofilm-laden pegs were transferred once a day to a new multititer plate containing fresh 7H9nt medium. To measure growth of the biofilm formed on the peg, the pegs were washed in 200 μl of 7H9nt medium before they were aseptically removed and placed in 1.7 ml microcentrifuge tubes (VWR 87003-294, Rador, PA, United States) containing 500 μl PBS/Tween 80. The microcentrifuge tubes were vigorously vortexed at 2,000 rpm for 90 s at 25°C to detach the bacteria from the pegs before samples were serially diluted and plated for the determination of CFU/peg. […] The average drug-free biofilm growth was calculated by subtracting the average 24 h CFU/peg value from the average 72 h CFU/peg value for the untreated control pegs. The biofilm MIC was defined as the lowest drug concentration that reduced the CFU/peg by 90% relative to the average drug-free biofilm growth.

[9] = system: anaerobic, nonreplicating M. abscessus Bamboo; test: MBC determination under anaerobic conditions; format: cell-based, Mycobacterium abscessus; conditions: 48 h drug exposure
[10] = system: M. abscessus Bamboo RM2 (GyrA D91N); test: microbe, parasite or virus in culture; format: cell-based, Mycobacterium abscessus
ChromlogD assay = format: physicochemical; conditions: reversed phase HPLC column (Gemini NX C18)
Description: The Chromatographic Hydrophobicity Index (CHI) values are measured using reversed phase HPLC column (50 × 2 mm […] Gemini NX C18, Phenomenex, UK) with fast acetonitrile gradient at starting mobile phase of pHs 2, 7.4 and 10.5. CHI values are derived directly from the gradient retention times by using a calibration line obtained for standard compounds. The CHI value approximates to the volume % organic concentration when the compound elutes. CHI is linearly transformed into ChromlogD by least-square fitting of experimental CHI values to calculated ClogP values for over 20K research compounds using the following formula: ChromlogD = 0.0857CHI-2.00. The average error of the assay is ±3 CHI unit or ±0.25 ChromlogD.

[11] = Stability in microsomes (intrinsic clearance); format: in vitro ADME, mouse
Description: (§1) Intrinsic clearance (CLi) values were determined in mouse and human liver microsomes. Test compounds (final concentration 0.5 μM) were incubated at 37°C for 30 min in 50 mM potassium phosphate buffer (pH 7.4) containing 0.5 mg microsomal protein/ml. The reaction was started by addition of cofactor NADPH. At 10 different time points (from zero to 30 min) an aliquot (90 μl) was taken, quenched with acetonitrile-methanol containing an appropriate internal standard, centrifuged and analyzed by LC-MS/MS. The intrinsic clearance (CLi) was determined using the following equation: CLi=k*(ml of incubation/mg microsomal protein)*(mg microsomal protein/g liver)
(§2) Where k is the turn-over rate constant of the ln (% remaining compound) versus time regression and mg microsomal protein/g liver is 52.5 for both mouse and human.

[12] = Stability in microsomes (intrinsic clearance); format: in vitro ADME, human
Description: as §1, §2

Tolerability in mice = format: in vivo, mouse; conditions: tolerated at doses up to

COc1cnc2ccc(=O)n(CCN3CCC(NCc4cnc(CO)c(Cl)c4)CC3)c2c1 [EC/11716]
MIC (M. avium 11): 1.1 µM (≈ 0.504 µg/mL) | MIC (M. abscessus Bamboo [1]): 2.5 µM (≈ 1.14 µg/mL) | MIC ([2]; ATCC19977): 1.9 µM (≈ 0.87 µg/mL) | MIC ([2]; ATCC19977, 72 h): 1.8 µM (≈ 0.824 µg/mL) | MIC [3]: 4.7 µM (≈ 2.15 µg/mL) | MIC [4]: 2.9 µM (≈ 1.33 µg/mL) | MIC [5]: 3.8 µM (≈ 1.74 µg/mL) | MIC [6]: 2.4 µM (≈ 1.1 µg/mL) | MBC (M. abscessus Bamboo [7]; 0 h, 10-fold reduction in CFU/ml vs day 0): 3.1 µM (≈ 1.42 µg/mL) | MIC (M. abscessus Bamboo [7]; 48 h, day 2): 1.5 µM (≈ 0.687 µg/mL) | increase of biofilm MBC relative to planktonic MBC ([8]; M. abscessus Bamboo biofilm vs planktonic bacteria): 2 fold | MBC ([8]; Mycobacteroides abscessus, Biofilm, M. abscessus Bamboo, 10-fold reduction of CFU/peg vs 24 h): 6.3 µM (≈ 2.89 µg/mL) | MIC ([8]; Mycobacteroides abscessus, Biofilm, M. abscessus Bamboo, 90% reduction of CFU/peg relative to drug-free biofilm growth, 48 h): 0.78 µM (≈ 0.357 µg/mL) | MBC [9]: >100 µM | MBC ([9]; Mycobacteroides abscessus): > 100 µM | MIC [10]: >100 µM | MIC ([10]; Mycobacteroides abscessus): > 100 µM | chromatographic logD (ChromlogD assay; pH 7.4, read-out: ChromLogD pH 7.4): 1.73 | chromatographic logD (ChromlogD assay; read-out: LogD): 1.74 | Mouse In vitro CLint ([11]; mouse hepatic microsomes, free base form): 1.6 ml/min/g tissue | mouse microsomal clearance ([11]; mouse microsomes): 1.6 ml/min/g protein | Human In vitro CLint ([12]; human hepatic microsomes, free base form): < 0.3 ml/min/g tissue | Human microsomal clearance ([12]; human microsomes): < 0.3 ml/min/g protein | tolerated dose (Tolerability in mice): up to 550 mg/kg
